Reference: US8207191B2, “Process, salts, composition and use” (Glaxo Group Limited, priority 2003, dated 2012)

Legend:
[1] = applied as a suitable topical formulation
[2] = solid-state properties of the crystalline salt (stability, hygroscopicity); type: physicochemical

hygroscopicity of the crystalline form [2]: non-hygroscopic
stability of the crystalline form [2]: stable
SMILES: C=CC1(C)CC(OC(=O)CSC2CC3CCC(C2)N3C)C2(C)C(C)CCC3(CCC(=O)C32)C(C)C1O.O=C(O)CCC(=O)O (stereo not drawn) [hydrosuccinate salt, hydrosuccinate salt of mutilin 14-(exo-8-methyl-8-azabicyclo[3.2.1]oct-3-ylsulfanyl)-acetate]
irritation [1]: does not cause significant irritation
